From US20080090873A1, “Sulfonamide derivatives” (priority 2006, published 2008) come the findings set out here.

In assay [1] the target is human adrenergic B2 receptor (Homo sapiens, UniProt P07550). The assay is described as follows: Whole cell luciferase reporter assay of agonist potency in CHO cells expressing the hB2 receptor. The note with it: 4 h incubation, read-out: EC50 - beta2. The assay is classed as cell-based. The method, then: Functional Assessment of Agonist Potency and Efficacy Using a Whole Cell Luciferase Reporter Assay in CHO Cells Expressing the hB2 Receptor.
Chain of human adrenergic B2 receptor (P07550 whole entry): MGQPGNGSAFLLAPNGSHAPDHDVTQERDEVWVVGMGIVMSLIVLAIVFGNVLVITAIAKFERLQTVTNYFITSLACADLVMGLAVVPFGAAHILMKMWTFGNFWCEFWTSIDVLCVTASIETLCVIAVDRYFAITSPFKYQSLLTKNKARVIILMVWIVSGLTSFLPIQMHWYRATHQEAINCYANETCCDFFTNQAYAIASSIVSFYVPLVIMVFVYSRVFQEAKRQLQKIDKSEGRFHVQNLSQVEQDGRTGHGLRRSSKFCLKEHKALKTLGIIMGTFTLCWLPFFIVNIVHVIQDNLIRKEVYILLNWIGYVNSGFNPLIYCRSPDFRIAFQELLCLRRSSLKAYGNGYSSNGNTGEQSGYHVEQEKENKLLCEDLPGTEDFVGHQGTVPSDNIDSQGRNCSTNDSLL
CHO (Chinese Hamster Ovary) cells recombinantly expressing the human adrenergic B2 receptor and transfected with a luciferase enzyme reporter gene were maintained in growth media composed of F12:DMEM (Sigma D6421) containing 10% Foetal Bovine Serum (FBS: Sigma F03921) 10 μg/ml puromycin (Sigma N277698), 0.5 mg/ml Geneticin G418 (Sigma G7034) and 2 mM L-glutamine (Sigma G7513). The cells were kept in sterile conditions at 37° C., in an atmosphere containing 5% CO2.
hB2 Luciferase Assay Protocol
Cells were harvested for assay when they reached 80-90% confluency using enzyme free cell Dissociation Solution (Life technologies 13151-014) incubated with the cells for 5 min at 37° C. in an atmosphere containing 5% CO2. Detached cells were collected in warmed growth media (composition described above), and re-suspended in assay media (F12:DMEM (Sigma D6421) containing 1% Foetal Bovine Serum (FBS: Sigma F03921), 10 μg/ml puromycin (Sigma N277698), 0.5 mg/ml Geneticin G418 (Sigma G7034) and 2 mM L-glutamine (Sigma G7513)) to give a viable cell concentration of 1×10^6 cells/ml. 10 ul of this suspension was added to each well of a tissue culture treated low volume 384 well plate (Greiner788073) and the plate incubated in an atmosphere containing 5% CO2 at 37° C. for 2 h. Concentration ranges of test compounds were prepared in phosphate Buffered Saline containing 0.05% pluronic-F127 (Sigma P2443) and 2.5% DMSO. […] At the end of the incubation period 4 μl of Steady-Glo reagent (Steady-Glo Luciferase assay system (Promega E2520) was added to each well and the plate read immediately in a Leadseeker Plate reader (Amersham Bioscience) using a 660 nm filter. Concentration effect curves were plotted and EC50 values generated using a 4-parameter sigmoid fit using an in-house data analysis programme. Isoprenaline was run in every assay as a reference standard.
(In a reporter assay the amount or activity of a reporter protein is the signal.)

Assay [2] addresses human muscarinic M3 receptor (Homo sapiens, UniProt P20309). The assay is described as follows: Whole cell β-lactamase reporter assay of antagonist activity in CHO cells expressing the hM3 receptor. The assay is classed as cell-based. Conditions: NFAT β-lactamase reporter, inhibition of 80 nM carbamyl choline signal, 4 h. The method, then: Functional Assessment of Antagonist Activity Using a Whole Cell β-Lactamase Reporter Assay in CHO Cells Expressing the hM3 Receptor.
CHO (Chinese Hamster Ovary) cells recombinantly expressing the human muscarinic M3 receptor were transfected with the NFAT_β-Lac_Zeo plasmid. Cells were grown in DMEM with Glutamax-1, supplemented with 25 mM HEPES (Life Technologies 32430-027), containing 10% FCS (Foetal Calf Serum; Sigma F-7524), […] Sodium pyruvate (Sigma S-8636), NEAA (non-Essential Amino Acids; Invitrogen 11140-035) and 200 μg/ml Zeocin (Invitrogen R250-01).
Cells were harvested for assay when they reached 80-90% confluency using enzyme free cell Dissociation Solution (Life technologies 13151-014) incubated with the cells for 5 min at 37° C. in an atmosphere containing 5% CO2. Detached cells were collected in warmed growth media and centrifuged at 2000 rpm for 10 min, washed in PBS (Phosphate Buffered Saline; Life Technologies 14190-094) and centrifuged again as just described. The cells were re-suspended at 2×10^5 cells/ml in growth medium (composition as described above). 20 μl of this cell suspension was added to each well of a 384 well black clear bottomed plate (Greiner Bio One 781091-PFI). The assay buffer used was PBS supplemented with 0.05% Pluronic F-127 (Sigma 9003-11-6) and 2.5% DMSO. Muscarinic M3 receptor signalling was stimulated using 80 nM carbamyl choline (Aldrich N240-9) incubated with the cells for 4 h at 37° C./5% CO2 and monitored at the end of the incubation period using a Tecan SpectraFluor+ plate reader (λ-excitation 405 nm, emission 450 nm and 503 nm). Compounds under test were added to the assay at the beginning of the 4 h incubation period and compound activity measured as the concentration dependent inhibition of the carbamyl choline induced signal. Inhibition curves were plotted and IC50 values generated using a 4-parameter sigmoid fit and converted to Ki values using the Cheng-Prusoff correction and the KD value for carbamyl choline in the assay.

The EC50 is the concentration at which the effect is half-maximal. Broadly, the IC50 is the concentration that gives 50% inhibition.

Chain of human muscarinic M3 receptor (P20309 whole entry): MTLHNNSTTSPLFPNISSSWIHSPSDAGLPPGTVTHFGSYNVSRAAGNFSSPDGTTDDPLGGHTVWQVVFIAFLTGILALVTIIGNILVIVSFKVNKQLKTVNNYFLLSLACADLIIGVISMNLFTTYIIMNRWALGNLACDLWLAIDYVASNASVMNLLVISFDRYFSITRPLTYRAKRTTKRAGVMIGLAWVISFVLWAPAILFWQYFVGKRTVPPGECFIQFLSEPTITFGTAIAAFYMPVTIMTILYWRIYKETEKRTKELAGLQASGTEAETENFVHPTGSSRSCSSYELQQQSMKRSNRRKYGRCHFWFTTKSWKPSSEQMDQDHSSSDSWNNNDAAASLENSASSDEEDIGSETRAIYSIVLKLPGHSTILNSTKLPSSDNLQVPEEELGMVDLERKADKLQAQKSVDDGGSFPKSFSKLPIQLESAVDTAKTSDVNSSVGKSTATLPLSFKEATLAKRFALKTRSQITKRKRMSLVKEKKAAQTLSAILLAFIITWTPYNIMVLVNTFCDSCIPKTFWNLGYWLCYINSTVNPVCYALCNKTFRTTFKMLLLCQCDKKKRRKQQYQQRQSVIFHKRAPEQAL

Consider `CS(=O)(=O)Nc1cc([C@@H](O)CNCCCCCCCCCN2CCC(OC(=O)Nc3ccccc3-c3ccc(O)c(F)c3)CC2)ccc1O` [Example 1, 1-(9-{[(2R)-2-Hydroxy-2-{4-hydroxy-3-[(methylsulfonyl)amino]phenyl}ethyl]amino}nonyl)piperidin-4-yl(3′-fluoro-4′-hydroxybiphenyl-2-yl)carbamate], for which the EC50 in assay [1] was 1.01 nM. The molecule further returned an IC50 in assay [2] of 2.93 nM.

Consider `CS(=O)(=O)Nc1cc([C@@H](O)CNCCCCCCCCCN2CCC(OC(=O)Nc3ccccc3-c3ccc(O)c(Cl)c3)CC2)ccc1O` [Example 2, 1-(9-{[(2R)-2-Hydroxy-2-{4-hydroxy-3-[(methylsulfonyl)amino]phenyl}ethyl]amino}nonyl)piperidin-4-yl(3′-chloro-4′-hydroxybiphenyl-2-yl)carbamate], for which, in assay [1], the EC50 was 0.133 nM. In assay [2], this molecule showed a 50% inhibitory concentration (IC50) of 0.725 nM.

Regarding `CS(=O)(=O)Nc1cc([C@@H](O)CNCCCCCCCCCN2CCC(OC(=O)Nc3ccc(F)cc3-c3ccc(O)c(Cl)c3)CC2)ccc1O` [Example 3, 1-(9-{[(2R)-2-hydroxy-2-{4-hydroxy-3-[(methylsulfonyl)amino]phenyl}ethyl]amino}nonyl)piperidin-4-yl(3′-chloro-5-fluoro-4′-hydroxybiphenyl-2-yl)carbamate], the EC50 in assay [1] came out at 0.252 nM. Also, in assay [2], the IC50 stood at 1.07 nM.
